Laboratory results: US5175172A, “Method of alleviating AIDS symptoms and compositions therefor” (priority 1988, dated 1992)
Values joined by “and” are separate entries in the source; they are usually repeats but may differ in a detail not shown here. Equal values may be shown once. Read-outs that look alike come from different tables or passages of the source.

Experiments:
[1] = tested on: HIV 1 virus; settings: 5 μM and 10 μM THA
Description: The CEM lines utilized for the multiplication of the virus, as well as for the inhibition studies, was provided by Service of Francoise Barre-Sinoussi, at the Institute Pasteur. The culture medium is RPMI 1640, supplemented with 10% fetal calf serum, 2% glutamine and 1% antibiotics. The cells are counted and subcultured in a culture flask every 3 or 4 days. In certain cases, the fungicide amphotericin B is added in dosages of 5 μg./ml.
The HIV 1 virus was provided from the same source and grown on CEM cells in the culture described above. The infection is created with a supernatant on the culture at a dose level of 50,000 cpm per 10^6 cells. The infection is followed by the evaluation of the activity of the reverse transcriptase which can reach a level of 10^6 cpm/ml. at the end of the culture. […]
35 μl of an incubation medium are made up of a solution of 0.07M magnesium chloride, 0.028M potassium chloride, 0.07M Tris at pH 7.8, 1.4 mM DTT and contain 5 μCi of ^3 H thymidine triphosphate, 2.5 μl of poly A are added to a unit of OD/ml. and 2.5 μl of oligo dT 12-18 to 1 unit of O.D/ml. and finally 10 μl of the plug resuspension from the ultracentrifugation or a control enzymatic preparation. […] The incorporated radioactivity which is as precipitated as an acid insoluble form was washed on Millipore HA 0.45 micron filters and counted by liquid scintillation counters. […]

[2] = molecular target: T1, reverse transcriptase of the HIV 1 virus (Human immunodeficiency virus type 1 group M subtype B, UniProt P04585); experiment: Action on reverse transcriptase of the HIV 1 virus (3H thymidine triphosphate incorporation); assay type: biochemical
T1 construct: Action on Reverse Transcriptase of the HIV 1 Virus; made in house; host or cells: HIV 1 virus grown on CEM cells; virus pelleted from the culture medium and resuspended in Triton X 100 (viral lysate, not recombinant)
Description: For the direct study of the action of the product on the activity of the reverse transcriptase, the virus was concentrated by ultracentrifugation and the plugs of virus removed from the culture medium are resuspended in a solution containing 0.15% Triton X 100, 0.05M Tris at pH 7.8 and 20% glycerol.
These preparations, frozen at -20° C., are active for several months and served for the direct measurement of the products on enzymatic activity.
The THA is diluted as stated above and added to 40 μl of the incubation solution under a volume of 5.5 μl before the addition of 10 μl of the enzymatic preparation. Initial concentrations of the product are thus 10 times more concentrated than the final dilution in the presence of the enzyme. The controls received 5.5 μl of water.

[3] = Seven month follow-up of THA vs AZT in HIV infected patients (open study): withdrawals for toxicity; assay type: in vivo, human; settings: AZT n = 52; THA n = 51
Description: 70 patients (61 males, 11 females) with HIV infection (69 stage IV, 10 stages II and III), received either AZT (46 patients 600-1200 mg./day) or THA (26 patients 150-250 mg/day).
13 patients were treated by THA alone, 20 by AZT alone, 26 by AZT then THA and 13 by THA then AZT. Mean duration of treatment was 5.8 months for 53 courses of AZT 5.4 months for 52 courses of THA.

[4] = tested on: HIV; settings: for Antigenemia, evolution (%) in comparison with D0: D0 value 462 pg/ml
Description: (§1) Seven Month Follow-Up Study of Tacrine Administration to 26 HIV Infected Patients
(§2) Tacrine was supplied as capsules containing 63.5 mg. Tacrine hydrochloride,monohydrate corresponding to 50 mg. base. An inert excipient (lactose) was added to fill white hard size 3 gelatin capsules.
(§3) For the first 15 days, patients received 2 capsules a day (i.e., 1 capsule at 8 A.M. and 1 at 8 P.M.). After the first 15 days, if nausea had not occurred or had ceased, the dosage was augmented by 1 capsule (i.e., 1 capsule at 8 A.M., 1 at lunch time and 1 at 8 P.M.). After this second period of 15 days, if nausea had not occurred or had ceased, the dosage was augmented by a further 1 capsule, to reach 4 capsules a day (i.e., 1 capsule at 8 A.M., 1 at lunch time, 1 at 4 P.M. and 1 at 8 P.M.).
(§4) D0 --Inclusion Examination--Serological, hematological and clinical determinations. Patients are supplied with capsules of Tacrine for 15 days.
(§5) D15 --First Control after 15 Days Treatment--Serological, hematological and clinical determinations. Patients are supplied with capsules of Tacrine for 15 days.
(§6) D1mth --Second control after 1 month of Treatment--Serological, hematological and clinical determinations. Patients are supplied with capsules of Tacrine for 1 month.
(§7) D'n'mth --Same as D1mth. Following examinations of one month interval each.

[5] = tested on: T4 Lymphocytes; settings: D0 value 203/mm^3
Description: as §1, §2, §3, §4, §5, §6, §7

[6] = tested on: Agp 24; experiment: Seven month follow-up of THA vs AZT in HIV infected patients (open study): Agp 24; assay type: in vivo
Source text: Expressed in mean variation (%) in comparison with Do values.

[7] = Seven month follow-up of Tacrine in 26 HIV infected patients: tolerability, side effects and withdrawals; assay type: in vivo, human
Description: Tacrine was supplied as capsules containing 63.5 mg. Tacrine hydrochloride,monohydrate corresponding to 50 mg. base.
D0 --Inclusion Examination--Serological, hematological and clinical determinations.
as §7
Their mean age was 40.3 (range 27-65).
Mean duration of treatment was 6 months.

[8] = tested on: T4
Description: Seven Month Follow-Up of Tacrine (THA) vs Zidovudine (AZT) in 72 HIV Infected Patients
Comparison of serological and clinical status of HIV infected patients after THA versus AZT treatment in an open study.
[…] (61 males, 11 females) with HIV infection ([…], 10 stages II and III), received either AZT (46 patients 600-1200 mg./day) or THA (26 patients 150-250 mg/day). In cases of intolerance or inefficacy, treatment was discontinued and patients were treated by the other drug.

[9] = during the first month of treatment
[10] = within the first month of treatment

Nc1c2c(nc3ccccc13)CCCC2 [Tacrine, 9-Amino-1,2,3,4-tetrahydroacridine]
Viral replication with respect to control cultures [1]: viral replication persists although significantly diminished
IC50 ([2]; 37° C., 1 hour, read-out: 50% inhibition (Di50) of HIV 1 reverse transcriptase (converted)): 400 µM and 504 µM
Inhibition of HIV 1 reverse transcriptase in combination with HPA 23 ([2]; HPA 23 at 4 μg/ml): synergistic effect with HPA 23
Inhibiting effect on reverse transcriptase ([2]; conclusions): low
IC50 ([2]; specificity test vs DNA polymerase, same concentrations, read-out: Di50 with respect to the reverse transcriptase): 450 µM
Withdrawals for toxicity, number [3]: 4
Withdrawals for toxicity, percent [3]: 8%
Antigenemia, evolution (%) in comparison with D0 ([4]; D1mth): -35.3%
Antigenemia, evolution (%) in comparison with D0 ([4]; D2mth): -22.1%
Antigenemia, evolution (%) in comparison with D0 ([4]; D3mth): -24%
Antigenemia, evolution (%) in comparison with D0 ([4]; D4mth): -17%
Antigenemia, evolution (%) in comparison with D0 ([4]; D5mth): -19.4%
Antigenemia, evolution (%) in comparison with D0 ([4]; D6mth): -54%
Antigenemia, evolution (%) in comparison with D0 ([4]; D7mth): -51.3%
Antigenemia, evolution (%) in comparison with D0 ([4]; D15): -38.5%
Opportunistic infections, cases ([4]; in 4 patients): 4 cases
Kaposi sarcoma emergence ([4]; number of cases, 26 patients): 2
Opportunistic infections: pneumocystosis ([4]; number of cases, 26 patients): 1
Opportunistic infections: toxoplasmosis ([4]; number of cases, 26 patients): 1
Opportunistic infections, patients ([4]; seven month follow-up): 4/26
Mortality ([4]; seven month follow-up, 26 patients): none
T4 Lymphocytes counts, evolution (%) in comparison with D0 ([5]; D1mth): +16.7%
T4 Lymphocytes counts, evolution (%) in comparison with D0 ([5]; D2mth): +23.9%
T4 Lymphocytes counts, evolution (%) in comparison with D0 ([5]; D3mth): +19.5%
T4 Lymphocytes counts, evolution (%) in comparison with D0 ([5]; D4mth): +28%
T4 Lymphocytes counts, evolution (%) in comparison with D0 ([5]; D5mth): +26.6%
T4 Lymphocytes counts, evolution (%) in comparison with D0 ([5]; D6mth): +8.4%
T4 Lymphocytes counts, evolution (%) in comparison with D0 ([5]; D7mth): +25.6%
T4 Lymphocytes counts, evolution (%) in comparison with D0 ([5]; D15): +5%
Agp 24, mean variation (%) in comparison with D0 ([6]; D1mth): -39.4%
Agp 24, mean variation (%) in comparison with D0 ([6]; D2mth): -28.3%
Agp 24, mean variation (%) in comparison with D0 ([6]; D3mth): -26.2%
Agp 24, mean variation (%) in comparison with D0 ([6]; D4mth): -21.5%
Agp 24, mean variation (%) in comparison with D0 ([6]; D5mth): -18.7%
Agp 24, mean variation (%) in comparison with D0 ([6]; D6mth): -39.5%
Agp 24, mean variation (%) in comparison with D0 ([6]; D7mth): -25%
Hematotoxicity: decrease of hematological counts ([7]; 26 patients): 0%
Hepatotoxicity: transaminase elevation ([7]; 26 patients): 0%
Nausea, cases ([7]; after the first month): 2 cases
Nausea, incidence ([7]; after the first month): 10%
Nausea, cases [7, 9]: 9 cases
Nausea, incidence [7, 9]: 35%
Withdrawals for side effects (severe nausea or neurologic), cases [7, 10]: 2 cases
Withdrawals for side effects (severe nausea or neurologic), incidence [7, 10]: 8%
T4 /mm^3, mean variation (%) in comparison with D0 ([8]; D1mth): +20.5%
T4 /mm^3, mean variation (%) in comparison with D0 ([8]; D2mth): +31.7%
T4 /mm^3, mean variation (%) in comparison with D0 ([8]; D3mth): +55.2%
T4 /mm^3, mean variation (%) in comparison with D0 ([8]; D4mth): +74.8%
T4 /mm^3, mean variation (%) in comparison with D0 ([8]; D5mth): +91.9%
T4 /mm^3, mean variation (%) in comparison with D0 ([8]; D6mth): +52%
T4 /mm^3, mean variation (%) in comparison with D0 ([8]; D7mth): +68.3%
